Laboratory results from US4386090A, “Nitrogen containing 2,3-dihydro naphthalenes, compositions and use” (Delalande S.A., priority 1980, dated 1983).

How the values were obtained:
mice [1] = assay: antidepressive activity, antagonism to ptosis after intravenous injection of reserpine; type: in vivo; details: Mus musculus, ip, 1 h, i.p., ptosis observed an hour after i.v. reserpine 2 mg/kg, read-out: ED 50 antidepressive property
Description: GOURET and J. THOMAS in J. Pharmacol. (Paris) (1973), 4, 401.

mice [2] = assay: analgesic activity, phenylbenzoquinone test (E. SIEGMUND); type: in vivo; details: Mus musculus, ip, read-out: ED 50 analgesic property
Description: Soc. Exp. Biol. and Med. 95, 729, (1957).

acute toxicity (LD 50) = details: in vivo, ip
Description: To illustrate the invention, there are shown in table IV below, the results obtained in these two tests and the acute toxicity (LD 50) of some compounds of formula (I).

| Structure (SMILES) | ED50 (mice [1]) | ED50 (mice [2]) | LD50 (acute toxicity (LD 50)) |
| --- | --- | --- | --- |
| CN(C)CCC1C=C(c2ccccc2F)c2ccccc2C1 (centres unmarked) [compound 101] | 0.4 mg/kg | 4.3 mg/kg | 93 mg/kg |
| CN(C)CC1Cc2ccc(Cl)cc2C(c2ccccc2F)=N1 (centres unmarked) [Code Number 9] | 4.3 mg/kg | 3 mg/kg | 52 mg/kg |
| CCN(CC)CC1Cc2ccc(C)cc2C(c2ccccc2)=N1 (centres unmarked) [compound 95] |  | 10 mg/kg | 45 mg/kg |
| Cc1ccc2c(c1)C(c1ccccc1)=NC(CN1CCOCC1)C2 (centres unmarked) [compound 98] |  | 30 mg/kg | 125 mg/kg |
| CN(C)CCC1Cc2ccccc2C(c2cccc(Cl)c2)=N1 (centres unmarked) [compound 26] | 5.4 mg/kg | 7.6 mg/kg | 65 mg/kg |
| Cc1ccc(C2=NC(CCN(C)C)Cc3ccccc32)cc1 (centres unmarked) [compound 33] | 2.7 mg/kg | 8.8 mg/kg | 70 mg/kg |
| NCCC1Cc2ccccc2C(c2ccccc2F)=N1 (centres unmarked) [compound 20] | 1.8 mg/kg | 3.7 mg/kg | 62 mg/kg |
| CN(C)CCC1Cc2ccccc2C(c2ccccc2Br)=N1 (centres unmarked) [compound 36] | 2.4 mg/kg |  | 77 mg/kg |
| COc1cccc(C2=NC(CCN(C)C)Cc3ccccc32)c1 (centres unmarked) [compound 29] | 6.8 mg/kg | 10 mg/kg | 78 mg/kg |
| CNCCC1Cc2ccccc2C(c2ccccc2)=N1 (centres unmarked) [compound 16] | 8.2 mg/kg | 10 mg/kg | 65 mg/kg |
| CN(C)CCC1Cc2ccccc2C(c2ccccc2F)=N1 (centres unmarked) [compound 22] | 0.6 mg/kg | 6.2 mg/kg | 70 mg/kg |
| COc1ccc2c(c1)C(c1ccccc1)=NC(CN1CCN(C)CC1)C2 (centres unmarked) [compound 100] | 9 mg/kg | 30 mg/kg | 140 mg/kg |
| COc1ccc(C2=NC(CCN(C)C)Cc3ccccc32)cc1 (centres unmarked) [compound 30] | 4.2 mg/kg |  | 70 mg/kg |
| CN(C)CC1COc2ccccc2C(c2ccc(Cl)cc2)=N1 (centres unmarked) [compound 44] | 10 mg/kg | 9.8 mg/kg | 130 mg/kg |
| Cc1ccccc1C1=NC(CCN(C)C)Cc2ccccc21 (centres unmarked) [compound 31] | 1.8 mg/kg | 5.6 mg/kg | 50 mg/kg |
| CN(C)CC1COc2ccccc2C(c2ccccc2)=N1 (centres unmarked) [compound 40] |  | 3 mg/kg | 80 mg/kg |
| CN(C)CCC1Cc2ccccc2C(c2cccc(C(F)(F)F)c2)=N1 (centres unmarked) [compound 104] |  | 4.3 mg/kg | 62 mg/kg |
| CN(C)CC1COc2ccccc2C(c2cccc(F)c2)=N1 (centres unmarked) [compound 87] | 30 mg/kg |  | 100 mg/kg |
| CN(C)CCC1Cc2ccccc2C(c2ccc(Cl)cc2)=N1 (centres unmarked) [compound 27] | 4.4 mg/kg | 11 mg/kg | 70 mg/kg |
| CN(C)CCC1Cc2ccccc2C(c2ccc([N+](=O)[O-])cc2)=N1 (centres unmarked) [compound 35] | 8 mg/kg | 8 mg/kg | 80 mg/kg |
| CN(C)CCC1Cc2ccc(Cl)cc2C(c2ccccc2)=N1 (centres unmarked) [compound 19] | 3.8 mg/kg | 4 mg/kg | 95 mg/kg |
| Cc1cccc(C2=NC(CCN(C)C)Cc3ccccc32)c1 (centres unmarked) [compound 32] | 6.6 mg/kg | 6.6 mg/kg | 67 mg/kg |
| CN(C)CCC1Cc2ccccc2C(c2ccccc2)=N1 (centres unmarked) [compound 17] | 1.5 mg/kg | 6 mg/kg | 65 mg/kg |
| CNCCC1Cc2ccccc2C(c2ccccc2F)=N1 (centres unmarked) [compound 21] | 1.2 mg/kg | 10 mg/kg | 70 mg/kg |
| NCCC1Cc2ccccc2C(c2ccccc2)=N1 (centres unmarked) [compound 15] | 0.9 mg/kg | 10 mg/kg | 67 mg/kg |
| CN(C)CC1Cc2ccccc2C(c2ccccc2F)=N1 (centres unmarked) [Code Number 8] | 1.1 mg/kg | 2.3 mg/kg | 35 mg/kg |
| CN(C)CCC1Cc2ccccc2C(c2ccccc2[N+](=O)[O-])=N1 (centres unmarked) [compound 34] | 1 mg/kg | 3.4 mg/kg | 77 mg/kg |
| CN1CCN(CC2Cc3ccccc3C(c3ccccc3)=N2)CC1 (centres unmarked) [compound 7] | 10 mg/kg | 6.2 mg/kg | 170 mg/kg |
